Results: patent US10457710B2, “Antimicrobial peptides, their variants and uses” (priority 2015, dated 2019)
Where a SMILES comes first, the peptide text is derived from it. [ ]: non-standard residue; d: D form.

Assays:
Assay type in all cases: cell-based
C. quillermondiae = assay: MIC, clinical yeast strains; settings: clinical yeast strain 1; D-form peptide; concentrations tested 0.125 to 128 μg/ml
In short: (§1)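 MIC = lowest peptide concentration without visual growth after 20–24 h at 37° C. Range 0.125–128 μg/ml, inoculum 5.0×10^5 cfu/ml, microdilution format. Antifungal tests used potato dextrose broth; bacterial tests used MH broth.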

C. parapsilosis = assay: MIC, clinical yeast strains; settings: D-form peptide, concentrations tested 0.125 to 128 μg/ml
In short: as §1

Candida albicans = assay: MIC, clinical yeast strains; settings: D-form peptide, concentrations tested 0.125 to 128 μg/ml
In short: as §1

C. glabrata = assay: MIC, clinical yeast strains; settings: D-form peptide, concentrations tested 0.125 to 128 μg/ml
In short: as §1

[1] = tested on: clinical strains of A. johnsonii; assay: MIC, microdilution, clinical strains; design: unit: μg/ml; settings: Acinetobacter johnsonii strain 1, Muller Hinton broth-cation adjusted, 0.02% BSA, 0.2% acetic acid
In short: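 Broth microdilution with inocula adjusted to 5.0×10^5 cfu/ml; peptides tested at 0.125 to 128 μg/ml and incubated at 37° C for 20 to 24 hours. Bacteria were grown in Mueller Hinton broth, yeasts in potato dextrose broth. MIC was the lowest concentration showing no visible growth.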

[2] = tested on: clinical strains of Acinetobacter baumannii; assay: MIC, microdilution, clinical strains; design: unit: μg/ml; settings: 0.02% BSA, 0.2% acetic acid
In short: (§2)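 Overnight MH agar colonies were suspended in MH broth to 5.0×10^5 cfu/ml, mixed with serial peptide dilutions (0.125–128 μg/ml) and incubated at 37° C for 20 to 24 hours. Yeast MICs were run the same way in potato dextrose broth, and wells were scored visually.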

[3] = tested on: clinical strains of P. aeruginosa; assay: MIC, microdilution, clinical strains; settings: 0.02% BSA, 0.2% acetic acid
In short: as §2

[4] = tested on: clinical strains of S. pneumoniae; assay: MIC, microdilution, clinical strains; settings: 0.02% BSA, 0.2% acetic acid
In short: as §2

[5] = tested on: clinical strains of E. coli; assay: MIC, microdilution, clinical strains; settings: microdilution, Muller Hinton broth-cation adjusted, 0.02% BSA, 0.2% acetic acid
In short: as §2

[6] = tested on: clinical strains of K. pneumoniae; assay: MIC, microdilution, clinical strains; settings: 0.02% BSA, 0.2% acetic acid
In short: as §2

[7] = tested on: clinical strains of S. aureus; assay: MIC, microdilution, clinical strains; settings: 0.02% BSA, 0.2% acetic acid
In short: as §2

[8] = tested on: clinical strains of Serratia marcescens; assay: MIC, microdilution, clinical strains; settings: 0.02% BSA, 0.2% acetic acid
In short: as §2

[9] = tested on: clinical strains of E. cloacae; assay: MIC, microdilution, clinical strains; settings: 0.02% BSA, 0.2% acetic acid
In short: as §2

[10] = tested on: clinical strains of Proteus mirabilis; assay: MIC, microdilution, clinical strains; settings: 0.02% BSA, 0.2% acetic acid
In short: as §2

## CC[C@@H](C)[C@@H](NC(=O)[C@@H](CCSC)NC(=O)[C@@H](C)NC(=O)[C@@H](CCCNC(=N)N)NC(=O)[C@@H](Cc1c[nH]c2ccccc12)NC(=O)[C@@H](CCCCN)NC(=O)[C@H](N)CCCNC(=N)N)C(=O)N[C@H](CCCNC(=N)N)C(=O)N[C@H](CC(C)C)C(=O)N[C@H](Cc1c[nH]cn1)C(=O)N[C@H](C)C(=O)N[C@H](CCCCN)C(=O)N[C@H](Cc1c[nH]c2ccccc12)C(=O)N[C@H](CC(C)C)C(=O)N[C@H](CCCNC(=N)N)C(=O)N[C@H](CCCCN)C(=O)O [Chain105D] (H-[dR][dK][dW][dR][dA][dM][dI][dR][dL][dH][dA][dK][dW][dL][dR][dK]-OH)
C. quillermondiae
  Minimum inhibitory concentration, C. quillermondiae strain 1: 8
C. parapsilosis; clinical yeast strain 1
  Minimum inhibitory concentration, C. parapsilosis strain 1: 8
C. parapsilosis; clinical yeast strain 2
  Minimum inhibitory concentration, C. parapsilosis strain 2: 8
C. parapsilosis; clinical yeast strain 3
  Minimum inhibitory concentration, C. parapsilosis strain 3: 8
C. parapsilosis; clinical yeast strain 4
  Minimum inhibitory concentration, C. parapsilosis strain 4: 4
Candida albicans; clinical yeast strain 1
  Minimum inhibitory concentration, Candida albicans strain 1: 32
Candida albicans; clinical yeast strain 2
  Minimum inhibitory concentration, Candida albicans strain 2: 16
Candida albicans; clinical yeast strain 3
  Minimum inhibitory concentration, Candida albicans strain 3: 32
Candida albicans; clinical yeast strain 4
  Minimum inhibitory concentration, Candida albicans strain 4: 32
Candida albicans; clinical yeast strain 5
  Minimum inhibitory concentration, Candida albicans strain 5: 32
C. glabrata; clinical yeast strain 1
  Minimum inhibitory concentration, C. glabrata strain 1: 16
C. glabrata; clinical yeast strain 2
  Minimum inhibitory concentration, C. glabrata strain 2: 16
C. glabrata; clinical yeast strain 3
  Minimum inhibitory concentration, C. glabrata strain 3: 8
C. glabrata; clinical yeast strain 4
  Minimum inhibitory concentration, C. glabrata strain 4: 32
[1]
  Minimum inhibitory concentration: 4
[2]; Acinetobacter baumannii strain 1, Muller Hinton broth-cation adjusted
  Minimum inhibitory concentration: 4
[2]; Acinetobacter baumannii strain 2, Muller Hinton broth-cation adjusted
  Minimum inhibitory concentration: 4
[2]; Acinetobacter baumannii strain 3, Muller Hinton broth-cation adjusted
  Minimum inhibitory concentration: 4
[2]; Acinetobacter baumannii strain 4, Muller Hinton broth-cation adjusted
  Minimum inhibitory concentration: 2
[2]; Acinetobacter baumannii strain 5, Muller Hinton broth-cation adjusted
  Minimum inhibitory concentration: 4
[3]; Pseudomonas aeruginosa strain 1, Muller Hinton broth-cation adjusted
  Minimum inhibitory concentration: 4
[3]; Pseudomonas aeruginosa strain 2, Muller Hinton broth-cation adjusted
  Minimum inhibitory concentration: 4
[3]; Pseudomonas aeruginosa strain 3, Muller Hinton broth-cation adjusted
  Minimum inhibitory concentration: 4
[3]; Pseudomonas aeruginosa strain 4, Muller Hinton broth-cation adjusted
  Minimum inhibitory concentration: 4
[3]; Pseudomonas aeruginosa strain 5, Muller Hinton broth-cation adjusted
  Minimum inhibitory concentration: 4
[4]; Streptococcus pneumoniae strain 1, Muller Hinton broth-cation adjusted
  Minimum inhibitory concentration: 4
[4]; Streptococcus pneumoniae strain 2, Muller Hinton broth-cation adjusted
  Minimum inhibitory concentration: 2
[4]; Streptococcus pneumoniae strain 3, Muller Hinton broth-cation adjusted
  Minimum inhibitory concentration: 2
[4]; Streptococcus pneumoniae strain 4, Muller Hinton broth-cation adjusted
  Minimum inhibitory concentration: 4
[4]; Streptococcus pneumoniae strain 5, Muller Hinton broth-cation adjusted
  Minimum inhibitory concentration: 2
[5]; Escherichia coli strain 1
  Minimum inhibitory concentration: 1
[5]; Escherichia coli strain 2
  Minimum inhibitory concentration: 4
[5]; Escherichia coli strain 3
  Minimum inhibitory concentration: 1
[5]; Escherichia coli strain 4
  Minimum inhibitory concentration: 1
[5]; Escherichia coli strain 5
  Minimum inhibitory concentration: 2
[6]; Klebsiella pneumoniae strain 1, Muller Hinton broth-cation adjusted
  Minimum inhibitory concentration: 4
[6]; Klebsiella pneumoniae strain 2, Muller Hinton broth-cation adjusted
  Minimum inhibitory concentration: 2
[6]; Klebsiella pneumoniae strain 3, Muller Hinton broth-cation adjusted
  Minimum inhibitory concentration: 4
[6]; Klebsiella pneumoniae strain 4, Muller Hinton broth-cation adjusted
  Minimum inhibitory concentration: 4
[6]; Klebsiella pneumoniae strain 5, Muller Hinton broth-cation adjusted
  Minimum inhibitory concentration: 2
[7]; Staphylococcus aureus strain 1, Muller Hinton broth-cation adjusted
  Minimum inhibitory concentration: 2
[7]; Staphylococcus aureus strain 2, Muller Hinton broth-cation adjusted
  Minimum inhibitory concentration: 2
[7]; Staphylococcus aureus strain 3, Muller Hinton broth-cation adjusted
  Minimum inhibitory concentration: 2
[7]; Staphylococcus aureus strain 4, Muller Hinton broth-cation adjusted
  Minimum inhibitory concentration: 2
[7]; Staphylococcus aureus strain 5, Muller Hinton broth-cation adjusted
  Minimum inhibitory concentration: 2
[8]; Serratia marcescens strain 1, Muller Hinton broth-cation adjusted
  Minimum inhibitory concentration: 128
[8]; Serratia marcescens strain 2, Muller Hinton broth-cation adjusted
  Minimum inhibitory concentration: 128
[8]; Serratia marcescens strain 3, Muller Hinton broth-cation adjusted
  Minimum inhibitory concentration: 128
[8]; Serratia marcescens strain 4, Muller Hinton broth-cation adjusted
  Minimum inhibitory concentration: 128
[8]; Serratia marcescens strain 5, Muller Hinton broth-cation adjusted
  Minimum inhibitory concentration: 128
[9]; Enterobacter cloacae strain 1, Muller Hinton broth-cation adjusted
  Minimum inhibitory concentration: 2
[9]; Enterobacter cloacae strain 2, Muller Hinton broth-cation adjusted
  Minimum inhibitory concentration: 2
[9]; Enterobacter cloacae strain 3, Muller Hinton broth-cation adjusted
  Minimum inhibitory concentration: 2
[9]; Enterobacter cloacae strain 4, Muller Hinton broth-cation adjusted
  Minimum inhibitory concentration: 2
[9]; Enterobacter cloacae strain 5, Muller Hinton broth-cation adjusted
  Minimum inhibitory concentration: 1
[10]; Proteus mirabilis strain 1, Muller Hinton broth-cation adjusted
  Minimum inhibitory concentration: >128
[10]; Proteus mirabilis strain 2, Muller Hinton broth-cation adjusted
  Minimum inhibitory concentration: 32
[10]; Proteus mirabilis strain 3, Muller Hinton broth-cation adjusted
  Minimum inhibitory concentration: 64
[10]; Proteus mirabilis strain 4, Muller Hinton broth-cation adjusted
  Minimum inhibitory concentration: >128
[10]; Proteus mirabilis strain 5, Muller Hinton broth-cation adjusted
  Minimum inhibitory concentration: >128
